Assay results from ChEMBL document CHEMBL1201862, “PubChem BioAssay data set” (2004).
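Following 48 hours of exposure in 96-well plates, responses at five concentrations were used to interpolate endpoints linearly. The concentration for 50% growth inhibition is given as GI50.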 Calls of active or inactive are those of the source. Cut-off read from the data, not from the text of the source: active = GI50 up to about 1.1 µM and inactive = higher.

Legend:
Test in all cases: inhibition of tumour cell growth, NCI panel, 48 h
786-0 = test system: 786-0
A498 = test system: A498
A549 = test system: A549
ACHN = test system: ACHN
CAKI-1 = test system: CAKI-1
CCRF-CEM = test system: CCRF-CEM
COLO 205 = test system: COLO 205
DLD-1 = test system: DLD-1
DMS-273 = test system: DMS-273
EKVX = test system: EKVX
HCC 2998 = test system: HCC 2998
HCT-116 = test system: HCT-116
HCT-15 = test system: HCT-15
HL-60 = test system: HL-60
HOP-62 = test system: HOP-62
HOP-92 = test system: HOP-92
HT-29 = test system: HT-29
IGROV-1 = test system: IGROV-1
K562 = test system: K562
KM-20L2 = test system: KM-20L2
KM12 = test system: KM12
LOX IMVI = test system: LOX IMVI
M19-MEL = test system: M19-MEL
MOLT-4 = test system: MOLT-4
Malme-3M = test system: Malme-3M
NCI-H226 = test system: NCI-H226
NCI-H23 = test system: NCI-H23
NCI-H460 = test system: NCI-H460
NCI-H522 = test system: NCI-H522
OVCAR-3 = test system: OVCAR-3
OVCAR-4 = test system: OVCAR-4
OVCAR-5 = test system: OVCAR-5
OVCAR-8 = test system: OVCAR-8
RPMI-8226 = test system: RPMI-8226
RXF 393 = test system: RXF 393
SF-268 = test system: SF-268
SF-295 = test system: SF-295
SF-539 = test system: SF-539
SK-MEL-28 = test system: SK-MEL-28
SK-MEL-2 = test system: SK-MEL-2
SK-OV-3 = test system: SK-OV-3
SN12C = test system: SN12C
SNB-19 = test system: SNB-19
SNB-75 = test system: SNB-75
SNB-78 = test system: SNB-78
SW-620 = test system: SW-620
TK-10 = test system: TK-10
U-251 = test system: U-251
UACC-257 = test system: UACC-257
UACC-62 = test system: UACC-62
UO-31 = test system: UO-31
XF498 = test system: XF498
DMS-114 = test system: DMS-114
M14 = test system: M14
SR = test system: SR
LXFL 529 = test system: LXFL 529
SK-MEL-5 = test system: SK-MEL-5

O=C(O)c1ccc(NC(=O)C2C(=O)C(=O)N(c3ccc(C(=O)O)cc3)C2=O)cc1 (centres undefined)
GI50 (786-0): > 100 µM (inactive)
GI50 (A498): > 100 µM (inactive)
GI50 (A549): > 100 µM (inactive)
GI50 (ACHN): > 100 µM (inactive)
GI50 (CAKI-1): > 100 µM (inactive)
GI50 (CCRF-CEM): > 100 µM (inactive)
GI50 (COLO 205): > 100 µM (inactive)
GI50 (DLD-1): > 100 µM (inactive)
GI50 (DMS-273): > 100 µM (inactive)
GI50 (EKVX): > 100 µM (inactive)
GI50 (HCC 2998): > 100 µM (inactive)
GI50 (HCT-116): > 100 µM (inactive)
GI50 (HCT-15): > 100 µM
GI50 (HL-60): > 100 µM (inactive)
GI50 (HOP-62): > 100 µM (inactive)
GI50 (HOP-92): > 100 µM (inactive)
GI50 (HT-29): > 100 µM (inactive)
GI50 (IGROV-1): > 100 µM (inactive)
GI50 (K562): > 100 µM (inactive)
GI50 (KM-20L2): > 100 µM (inactive)
GI50 (KM12): > 100 µM (inactive)
GI50 (LOX IMVI): > 100 µM (inactive)
GI50 (M19-MEL): > 100 µM (inactive)
GI50 (MOLT-4): > 100 µM (inactive)
GI50 (Malme-3M): > 100 µM (inactive)
GI50 (NCI-H226): > 100 µM (inactive)
GI50 (NCI-H23): > 100 µM (inactive)
GI50 (NCI-H460): > 100 µM (inactive)
GI50 (NCI-H522): > 100 µM (inactive)
GI50 (OVCAR-3): > 100 µM (inactive)
GI50 (OVCAR-4): > 100 µM (inactive)
GI50 (OVCAR-5): > 100 µM (inactive)
GI50 (OVCAR-8): > 100 µM (inactive)
GI50 (RPMI-8226): > 100 µM (inactive)
GI50 (RXF 393): > 100 µM (inactive)
GI50 (SF-268): > 100 µM (inactive)
GI50 (SF-295): > 100 µM (inactive)
GI50 (SF-539): > 100 µM (inactive)
GI50 (SK-MEL-28): > 100 µM (inactive)
GI50 (SK-MEL-2): > 100 µM (inactive)
GI50 (SK-OV-3): > 100 µM (inactive)
GI50 (SN12C): > 100 µM (inactive)
GI50 (SNB-19): > 100 µM (inactive)
GI50 (SNB-75): > 100 µM (inactive)
GI50 (SNB-78): > 100 µM (inactive)
GI50 (SW-620): > 100 µM (inactive)
GI50 (TK-10): > 100 µM (inactive)
GI50 (U-251): > 100 µM (inactive)
GI50 (UACC-257): > 100 µM (inactive)
GI50 (UACC-62): > 100 µM (inactive)
GI50 (UO-31): > 100 µM (inactive)
GI50 (XF498): > 100 µM (inactive)

COCC(O)Cn1ccnc1[N+](=O)[O-] (centres undefined) [MISONIDAZOLE]
GI50 (786-0): > 100 µM (inactive)
GI50 (A549): > 100 µM (inactive)
GI50 (ACHN): > 100 µM (inactive)
GI50 (CAKI-1): > 100 µM (inactive)
GI50 (CCRF-CEM): > 100 µM (inactive)
GI50 (COLO 205): > 100 µM (inactive)
GI50 (DMS-114): > 100 µM (inactive)
GI50 (DMS-273): > 100 µM (inactive)
GI50 (EKVX): > 100 µM (inactive)
GI50 (HCC 2998): > 100 µM (inactive)
GI50 (HCT-116): > 100 µM (inactive)
GI50 (HCT-15): > 100 µM
GI50 (HL-60): > 100 µM (inactive)
GI50 (HOP-62): > 100 µM (inactive)
GI50 (HT-29): > 100 µM (inactive)
GI50 (K562): > 100 µM (inactive)
GI50 (KM-20L2): > 100 µM (inactive)
GI50 (KM12): > 100 µM (inactive)
GI50 (LOX IMVI): > 100 µM (inactive)
GI50 (M14): > 100 µM (inactive)
GI50 (M19-MEL): > 100 µM (inactive)
GI50 (MOLT-4): > 100 µM (inactive)
GI50 (Malme-3M): > 100 µM (inactive)
GI50 (NCI-H226): > 100 µM (inactive)
GI50 (NCI-H23): > 100 µM (inactive)
GI50 (NCI-H460): > 100 µM (inactive)
GI50 (NCI-H522): > 100 µM (inactive)
GI50 (OVCAR-3): > 100 µM (inactive)
GI50 (OVCAR-5): > 100 µM (inactive)
GI50 (OVCAR-8): > 100 µM (inactive)
GI50 (RPMI-8226): > 100 µM (inactive)
GI50 (SF-268): > 100 µM (inactive)
GI50 (SF-295): > 100 µM (inactive)
GI50 (SF-539): > 100 µM (inactive)
GI50 (SK-MEL-28): > 100 µM (inactive)
GI50 (SK-MEL-2): > 100 µM (inactive)
GI50 (SK-OV-3): > 100 µM (inactive)
GI50 (SN12C): > 100 µM (inactive)
GI50 (SNB-19): > 100 µM (inactive)
GI50 (SNB-78): > 100 µM (inactive)
GI50 (SR): > 100 µM (inactive)
GI50 (SW-620): > 100 µM (inactive)
GI50 (TK-10): > 100 µM (inactive)
GI50 (U-251): > 100 µM (inactive)
GI50 (UACC-257): > 100 µM (inactive)
GI50 (UO-31): > 100 µM (inactive)
GI50 (XF498): > 100 µM (inactive)

COc1ccc(C2C(Cl)C(=O)N2NC(=O)c2ccccc2O)cc1OC (centres undefined)
GI50 (786-0): > 100 µM (inactive)
GI50 (A498): > 100 µM (inactive)
GI50 (A549): > 100 µM (inactive)
GI50 (ACHN): > 100 µM (inactive)
GI50 (CCRF-CEM): 31.6 µM (inactive)
GI50 (DLD-1): > 100 µM (inactive)
GI50 (DMS-114): 41.1 µM (inactive)
GI50 (DMS-273): > 100 µM (inactive)
GI50 (HCT-116): > 100 µM (inactive)
GI50 (HCT-15): 68.9 µM
GI50 (HL-60): 41 µM (inactive)
GI50 (HT-29): 65.8 µM (inactive)
GI50 (IGROV-1): > 100 µM (inactive)
GI50 (K562): 50.2 µM (inactive)
GI50 (KM12): 92.3 µM (inactive)
GI50 (LOX IMVI): 36.5 µM (inactive)
GI50 (LXFL 529): > 10 µM (inactive)
GI50 (M14): > 100 µM (inactive)
GI50 (M19-MEL): > 100 µM (inactive)
GI50 (MOLT-4): 42.5 µM (inactive)
GI50 (Malme-3M): 65.3 µM (inactive)
GI50 (NCI-H226): > 100 µM (inactive)
GI50 (NCI-H23): > 100 µM (inactive)
GI50 (NCI-H460): 49.5 µM (inactive)
GI50 (NCI-H522): 32.2 µM (inactive)
GI50 (OVCAR-3): 75.9 µM (inactive)
GI50 (OVCAR-4): 75.9 µM (inactive)
GI50 (OVCAR-8): 93.1 µM (inactive)
GI50 (RXF 393): > 100 µM (inactive)
GI50 (SF-268): 54.2 µM (inactive)
GI50 (SF-295): 51.8 µM (inactive)
GI50 (SF-539): > 100 µM (inactive)
GI50 (SK-MEL-28): > 100 µM (inactive)
GI50 (SK-MEL-2): 92 µM (inactive)
GI50 (SK-MEL-5): 60 µM (inactive)
GI50 (SK-OV-3): 90.2 µM (inactive)
GI50 (SN12C): > 100 µM (inactive)
GI50 (SNB-19): > 100 µM (inactive)
GI50 (SNB-78): > 100 µM (inactive)
GI50 (TK-10): > 100 µM (inactive)
GI50 (U-251): 92.3 µM (inactive)
GI50 (UACC-257): 93.8 µM (inactive)
GI50 (UACC-62): > 100 µM (inactive)
GI50 (UO-31): 53.2 µM (inactive)
GI50 (XF498): 15.5 µM (inactive)
